Test results: patent US20250144067A1, “PERSONALIZED STARVATION THERAPY FOR CANCER” (Faeth Therapeutics, Inc., priority 2021, published 2025)
Counter-ions that a name gives are not always drawn.

Key:
[1] = test system: NCI-H292 lung cancer cells; assay: FDA drug screening, complete media vs cholesterol-free media with simvastatin (TABLE 2); assay type: cell-based, human; details: for Cholesterol-free media + simvastatin (0.04 μM) / Complete Media: NCI-H292 cells; for Difference: >0 enhanced anti-cancer activity, about 0 neutral, <0 antagonist
[2] = test system: NCI-H292 lung cancer cells; assay: FDA drug screening, complete media vs cholesterol-free media without statin (TABLE 1); assay type: cell-based, human; details: for Difference: about 0 neutral
[3] = drug in cholesterol-free media with simvastatin 0.04 μM
[4] = complete media vs cholesterol-free media + simvastatin (0.04 μM)
[5] = NCI-H292 cells, cholesterol-free media without statin
[6] = complete vs cholesterol-free media, greater than 0 enhanced anti-cancer activity, below 0 antagonists
[7] = FDA library drug in cholesterol-free media with simvastatin 0.04 μM
[8] = FDA library drug in complete media
[9] = Complete minus Cholesterol-free, greater than 0 enhanced anti-cancer activity, below 0 antagonist
[10] = NCI-H292 cells, FDA drug library screen, cholesterol-free media without statin
[11] = NCI-H292 cells, FDA drug library screen, complete media
[12] = FDA drug library screen, cholesterol-free media with simvastatin 0.04 μM
[13] = FDA drug library screen, complete media
[14] = complete media minus cholesterol-free media + simvastatin
[15] = Complete minus Cholesterol-free, >0 enhanced anti-cancer activity, <0 antagonist
[16] = NCI-H292 cells, cholesterol-free media without statin, FDA drug library screen
[17] = NCI-H292 cells, complete media, FDA drug library screen
[18] = Complete minus Cholesterol-free, greater than 0 enhanced anti-cancer activity, below 0 antagonists
[19] = NCI-H292 cells in cholesterol-free media without statin
[20] = NCI-H292 cells in complete media

Question: Which “Cholesterol-free media + simvastatin (0.04 μM)” value [1, 3] does the source give for `Nc1nc2ncc(CNc3ccc(C(=O)N[C@@H](CCC(=O)O)C(=O)O)cc3)nc2c(=O)[nH]1` [Folic acid] here?
Answer: 1.118

Question: And the “Complete Media” value ([1]; drug in complete media)?
Answer: 0.9443

Question: What about the Difference [1, 4] of the same compound?
Answer: −0.17

Question: What about the Cholesterol-free [2, 5] of the same compound?
Answer: 1.731

Question: And the Complete ([2]; NCI-H292 cells, complete media)?
Answer: 1.312

Question: What about the Difference [2, 6] of the same compound?
Answer: −0.42

Question: With `Nc1nc(=O)c2c([nH]1)NC[C@@H](CNc1ccc(C(=O)N[C@@H](CCC(=O)O)C(=O)O)cc1)N2C=O` [Folinic acid] as the compound, how does the “Cholesterol-free media + simvastatin (0.04 μM)” value [1, 7] read?
Answer: 1.232

Question: And the “Complete Media” value [1, 8]?
Answer: 0.9515

Question: What about the Difference [1, 4] of the same compound?
Answer: −0.28

Question: And the Difference [2, 9]?
Answer: −0.12

Question: What about the Cholesterol-free [2, 10] of the same compound?
Answer: 1.105

Question: And the Complete [2, 11]?
Answer: 0.9813

Question: Which “Cholesterol-free media + simvastatin (0.04 μM)” value [1, 12] does the source give for `Cc1cn[nH]c1` [Fomepizole] here?
Answer: 0.8562

Question: And the “Complete Media” value [1, 13]?
Answer: 1.121

Question: And the Difference [1, 14]?
Answer: 0.26

Question: What about the Difference [2, 15] of the same compound?
Answer: −0.26

Question: What about the Cholesterol-free [2, 5] of the same compound?
Answer: 1.239

Question: And the Complete ([2]; NCI-H292 cells, complete media)?
Answer: 0.9771

Question: Which “Cholesterol-free media + simvastatin (0.04 μM)” value [1, 7] does the source give for `CO[C@H]1O[C@H](COS(=O)(=O)O)[C@@H](O[C@@H]2O[C@@H](C(=O)O)[C@@H](O[C@H]3O[C@H](COS(=O)(=O)O)[C@@H](O[C@@H]4O[C@H](C(=O)O)[C@@H](O[C@H]5O[C@H](COS(=O)(=O)O)[C@@H](O)[C@H](O)[C@H]5NS(=O)(=O)O)[C@H](O)[C@H]4O)[C@H](OS(=O)(=O)O)[C@H]3NS(=O)(=O)O)[C@H](O)[C@H]2OS(=O)(=O)O)[C@H](O)[C@H]1NS(=O)(=O)O` [Fondaparinux (sodium)] here?
Answer: 1.182

Question: What about the “Complete Media” value [1, 8] of the same compound?
Answer: 0.8937

Question: And the Difference [1, 4]?
Answer: −0.29

Question: And the Difference [2, 9]?
Answer: −0.10

Question: And the Cholesterol-free [2, 10]?
Answer: 1.098

Question: What about the Complete [2, 11] of the same compound?
Answer: 1

Question: Which “Cholesterol-free media + simvastatin (0.04 μM)” value ([1]; cholesterol-free media with simvastatin 0.04 μM, cell growth value in FDA drug screen) does the source give for `CC(C)CN(C[C@@H](OP(=O)(O)O)[C@H](Cc1ccccc1)NC(=O)O[C@H]1CCOC1)S(=O)(=O)c1ccc(N)cc1` [Fosamprenavir (Calcium Salt)] here?
Answer: 0.8511

Question: What about the “Complete Media” value ([1]; complete media, cell growth value in FDA drug screen) of the same compound?
Answer: 0.8779

Question: What about the Difference [1, 14] of the same compound?
Answer: 0.03

Question: And the Difference [2, 9]?
Answer: −0.11

Question: And the Cholesterol-free [2, 10]?
Answer: 1.061

Question: And the Complete [2, 11]?
Answer: 0.9495

Question: How did the “Cholesterol-free media + simvastatin (0.04 μM)” value [1, 12] turn out when `CC(C)CN(C[C@@H](OP(=O)(O)O)[C@H](Cc1ccccc1)NC(=O)O[C@H]1CCOC1)S(=O)(=O)c1ccc(N)cc1` [Fosamprenavir] was run?
Answer: 1.194

Question: What about the “Complete Media” value [1, 13] of the same compound?
Answer: 1.12

Question: And the Difference [1, 4]?
Answer: −0.07

Question: And the Difference [2, 15]?
Answer: −0.06

Question: And the Cholesterol-free [2, 16]?
Answer: 0.7855

Question: What about the Complete [2, 17] of the same compound?
Answer: 0.7241

Question: With `O=C(O)P(=O)(O)O` [Foscarnet (sodium)] as the compound, how does the “Cholesterol-free media + simvastatin (0.04 μM)” value [1, 3] read?
Answer: 1.224

Question: And the “Complete Media” value ([1]; drug in complete media)?
Answer: 1.051

Question: And the Difference [1, 4]?
Answer: −0.17

Question: What about the Cholesterol-free [2, 5] of the same compound?
Answer: 1.261

Question: What about the Complete ([2]; NCI-H292 cells, complete media) of the same compound?
Answer: 0.9196

Question: What about the Difference [2, 6] of the same compound?
Answer: −0.34

Question: Which “Cholesterol-free media + simvastatin (0.04 μM)” value [1, 3] does the source give for `C[C@@H]1O[C@@H]1P(=O)(O)O` [Fosfomycin (calcium)] here?
Answer: 1.093

Question: And the “Complete Media” value ([1]; drug in complete media)?
Answer: 0.8864

Question: What about the Difference [1, 4] of the same compound?
Answer: −0.21

Question: What about the Difference [2, 15] of the same compound?
Answer: −0.27

Question: What about the Cholesterol-free [2, 5] of the same compound?
Answer: 1.27

Question: And the Complete ([2]; NCI-H292 cells, complete media)?
Answer: 1.001

Question: How did the “Cholesterol-free media + simvastatin (0.04 μM)” value [1, 12] turn out when `C[C@@H]1O[C@@H]1P(=O)(O)O` [Fosfomycin (sodium)] was run?
Answer: 1.163

Question: And the “Complete Media” value [1, 13]?
Answer: 1.004

Question: What about the Difference [1, 4] of the same compound?
Answer: −0.16

Question: And the Difference [2, 15]?
Answer: −0.22

Question: And the Cholesterol-free [2, 5]?
Answer: 1.096

Question: What about the Complete ([2]; NCI-H292 cells, complete media) of the same compound?
Answer: 0.8782

Question: How did the “Cholesterol-free media + simvastatin (0.04 μM)” value [1, 12] turn out when `CCC(=O)O[C@@H](O[P@](=O)(CCCCc1ccccc1)CC(=O)N1C[C@H](C2CCCCC2)C[C@H]1C(=O)O)C(C)C` [Fosinopril (sodium)] was run?
Answer: 0.91

Question: And the “Complete Media” value [1, 13]?
Answer: 1.199

Question: What about the Difference [1, 14] of the same compound?
Answer: 0.29

Question: And the Difference [2, 18]?
Answer: −0.52

Question: And the Cholesterol-free [2, 19]?
Answer: 1.831

Question: And the Complete [2, 20]?
Answer: 1.313

Question: With `O=C1NC(c2ccccc2)(c2ccccc2)C(=O)N1COP(=O)(O)O` [Fosphenytoin (disodium)] as the compound, how does the “Cholesterol-free media + simvastatin (0.04 μM)” value [1, 7] read?
Answer: 1.806

Question: And the “Complete Media” value [1, 8]?
Answer: 1.233

Question: What about the Difference [1, 4] of the same compound?
Answer: −0.57

Question: What about the Difference [2, 18] of the same compound?
Answer: −1.22

Question: What about the Cholesterol-free [2, 19] of the same compound?
Answer: 2.489

Question: And the Complete [2, 20]?
Answer: 1.268

Question: How did the “Cholesterol-free media + simvastatin (0.04 μM)” value [1, 12] turn out when `COc1cc(Nc2ncc(F)c(Nc3ccc4c(n3)N(COP(=O)(O)O)C(=O)C(C)(C)O4)n2)cc(OC)c1OC` [Fostamatinib (disodium hexahydrate)] was run?
Answer: 0.9752

Question: What about the “Complete Media” value [1, 13] of the same compound?
Answer: 0.8745

Question: And the Difference [1, 4]?
Answer: −0.10

Question: And the Difference [2, 15]?
Answer: 0.00

Question: What about the Cholesterol-free [2, 16] of the same compound?
Answer: 0.5454

Question: And the Complete [2, 17]?
Answer: 0.5466

Question: What does the source list for `COc1cc(Nc2ncc(F)c(Nc3ccc4c(n3)N(COP(=O)(O)O)C(=O)C(C)(C)O4)n2)cc(OC)c1OC` [Fostamatinib Disodium]?
Answer: Cholesterol-free media + simvastatin (0.04 μM) [1, 12]: 0.7811; Complete Media [1, 13]: 0.6698; Difference [1, 4]: −0.11; Difference [2, 15]: −0.20; Cholesterol-free [2, 5]: 1.102; Complete ([2]; NCI-H292 cells, complete media): 0.9004
